Reference: patent US20090143478A1, “Milled Submicron Organic Biocides With Narrow Particle Size Distribution, and Uses Thereof” (PhibroWood, LLC, priority 2004, published 2009)
Like-named read-outs stand apart in the source and are kept apart here.

Assays:
[1] = format: physicochemical; conditions: 0.4-0.5 mm zirconium silicate
Description: (§1) The laboratory-sized vertical mill was provided by C B Mills, model# L-3-J. The mill has a 2 liter capacity and is jacketed for cooling. Unless otherwise specified, ambient water was cycled through the mill cooling jacket during operation. The internal dimensions are 3.9″ diameter by 9.1″ height. The mill uses a standard 3×3″ disk agitator (mild steel) on a stainless steel shaft, and it operates at 2,620 rpm.
(§2) The media used in this Example was 0.4-0.5 mm zirconium silicate beads supplied by C B Mills. All particle size determinations were made with a Sedigraph™ 5100T manufactured by Micromeritics, which uses x-ray detection and bases calculations of size on Stokes' Law.
The total batch weight was about 600 g.

[2] = Wet milling chlorothalonil with 0.5-0.6 mm cerium-doped zirconium oxide beads, particle size by Sedigraph; format: physicochemical
Description: as §1, §2
The same mill and conditions were used in this experiment as in experiment 1. However, the grinding media was 0.5-0.6 mm cerium-doped zirconium oxide beads obtained from CB Mills. The density of the cerium doped zirconium oxide is ˜6.0 g/cm^3. […] The total batch weight was about 600 g.

[3] = at 170 C; cited from earlier work
[4] = cited from earlier work
[5] = Milling Time 0 Mins., 0.5-0.6 mm cerium-doped zirconium oxide
[6] = Milling Time 90 Mins., 0.5-0.6 mm cerium-doped zirconium oxide
[7] = Milling Time 240 Mins., 0.5-0.6 mm cerium-doped zirconium oxide
[8] = obtainable in 6 hours, 0.5 mm zirconia milling media
[9] = 0.1 cm zirconia, 10 minutes, US 2004/0063847, 2003/0040569

N#Cc1c(Cl)c(Cl)c(Cl)c(C#N)c1Cl [chlorothalonil, 2,4,5,6-tetrachloro-1,3-dicyanobenzene]
Volume % With Diameter Greater Than 2 μm ([1]; Milling Time 0 Mins.): 95 Volume % | Volume % With Diameter Greater Than 5 μm ([1]; Milling Time 0 Mins.): 48 Volume % | Volume % With Diameter Greater Than 10 μm ([1]; Milling Time 0 Mins.): 10 Volume % | d50 ([1]; Milling Time 0 Mins.): 4.9 μm | Volume % With Diameter Greater Than 1 μm ([1]; Milling Time 30 Mins.): 68 Volume % | Volume % With Diameter Greater Than 2 μm ([1]; Milling Time 30 Mins.): 21 Volume % | Volume % With Diameter Greater Than 5 μm ([1]; Milling Time 30 Mins.): 4 Volume % | Volume % With Diameter Greater Than 10 μm ([1]; Milling Time 30 Mins.): 0 Volume % | d50 ([1]; Milling Time 30 Mins.): 1.3 μm | Volume % With Diameter Greater Than 1 μm ([1]; Milling Time 60 Mins.): 50 Volume % | Volume % With Diameter Greater Than 2 μm ([1]; Milling Time 60 Mins.): 11 Volume % | Volume % With Diameter Greater Than 5 μm ([1]; Milling Time 60 Mins.): 2 Volume % | Volume % With Diameter Greater Than 10 μm ([1]; Milling Time 60 Mins.): 4 Volume % | d50 ([1]; Milling Time 60 Mins.): 1.0 μm | Volume % With Diameter Greater Than 1 μm ([1]; Milling Time 90 Mins.): 94 Volume % | Volume % With Diameter Greater Than 2 μm ([1]; Milling Time 90 Mins.): 22 Volume % | Volume % With Diameter Greater Than 5 μm ([1]; Milling Time 90 Mins.): 23 Volume % | Volume % With Diameter Greater Than 10 μm ([1]; Milling Time 90 Mins.): 18 Volume % | d50 ([1]; Milling Time 90 Mins.): 1.4 μm | Volume % With Diameter Greater Than 2 μm ([1]; Milling Time 120 Mins.): 4 Volume % | Volume % With Diameter Greater Than 5 μm ([1]; Milling Time 120 Mins.): 0 Volume % | Volume % With Diameter Greater Than 10 μm ([1]; Milling Time 120 Mins.): 2 Volume % | d50 ([1]; Milling Time 120 Mins.): 1.03 μm | Volume % With Diameter Greater Than 1 μm ([1]; Milling Time 150 Mins.): 58 Volume % | Volume % With Diameter Greater Than 2 μm ([1]; Milling Time 150 Mins.): 6 Volume % | Volume % With Diameter Greater Than 5 μm ([1]; Milling Time 150 Mins.): 2 Volume % | Volume % With Diameter Greater Than 10 μm ([1]; Milling Time 150 Mins.): 0 Volume % | d50 ([1]; Milling Time 150 Mins.): 1.12 μm | Volume % With Diameter Greater Than 1 μm ([1]; Milling Time 180 Mins.): 53 Volume % | Volume % With Diameter Greater Than 2 μm ([1]; Milling Time 180 Mins.): 7 Volume % | Volume % With Diameter Greater Than 5 μm ([1]; Milling Time 180 Mins.): 2 Volume % | Volume % With Diameter Greater Than 10 μm ([1]; Milling Time 180 Mins.): 2 Volume % | d50 ([1]; Milling Time 180 Mins.): 1.07 μm | Volume % With Diameter Greater Than 1 μm ([1]; Milling Time 270 Mins.): 54 Volume % | Volume % With Diameter Greater Than 2 μm ([1]; Milling Time 270 Mins.): 8 Volume % | Volume % With Diameter Greater Than 5 μm ([1]; Milling Time 270 Mins.): 0 Volume % | Volume % With Diameter Greater Than 10 μm ([1]; Milling Time 270 Mins.): 2 Volume % | d50 ([1]; Milling Time 270 Mins.): 1.09 μm | Volume % With Diameter Greater Than 1 μm ([1]; Milling Time 450 Mins.): 56 Volume % | Volume % With Diameter Greater Than 2 μm ([1]; Milling Time 450 Mins.): 21 Volume % | Volume % With Diameter Greater Than 5 μm ([1]; Milling Time 450 Mins.): 8 Volume % | Volume % With Diameter Greater Than 10 μm ([1]; Milling Time 450 Mins.): 12 Volume % | d50 ([1]; Milling Time 450 Mins.): 1.15 μm | Volume % With Diameter Greater Than 1 μm [2, 5]: 92 Volume % | Volume % With Diameter Greater Than 2 μm [2, 5]: 77 Volume % | Volume % With Diameter Greater Than 5 μm [2, 5]: 30 Volume % | Volume % With Diameter Greater Than 10 μm [2, 5]: 8 Volume % | d50 [2, 5]: 3.44 μm | Volume % With Diameter Greater Than 0.4 μm [2, 6]: 22 Volume % | Volume % With Diameter Greater Than 1 μm [2, 6]: 3 Volume % | Volume % With Diameter Greater Than 2 μm [2, 6]: 3 Volume % | Volume % With Diameter Greater Than 5 μm [2, 6]: 3 Volume % | Volume % With Diameter Greater Than 10 μm [2, 6]: 3 Volume % | Volume % With Diameter Greater Than 0.2 μm [2, 7]: 51 Volume % | Volume % With Diameter Greater Than 0.4 μm [2, 7]: 3 Volume % | Volume % With Diameter Greater Than 1 μm [2, 7]: 3 Volume % | Volume % With Diameter Greater Than 2 μm [2, 7]: 2 Volume % | Volume % With Diameter Greater Than 5 μm [2, 7]: 1 Volume % | Volume % With Diameter Greater Than 10 μm [2, 7]: 0 Volume % | d50 [2, 7]: 0.21 μm | d95 within a factor of the d50 ([2]; milled chlorothalonil of the example): ≤ 2 | d95 ([2]; obtainable in 90 minutes, 0.5 mm zirconia milling media): less than 1 micron | d50 [2, 8]: less than 0.3 microns | d95 [2, 8]: less than 0.4 microns | increase in number of particles per unit of mass over the standard products, factor ([2]; product obtained after 90 minutes of milling (first statement)): more than 30 | increase in number of particles per unit of mass over the standard products, factor ([2]; product obtained after 90 minutes of milling (second statement)): more than 1000 | volatility [3]: 9.2 mmHg | size below which 90% of the number of particles lie ([4]; 0.1 cm zirconium beads, 3000 rpm, 10 minutes, US 2004/0024099): below 0.5 microns | mean / average particle diameter after milling with 2 mm glass beads ([4]; U.S. Pat. No. 5,360,783): 2.3 microns | average particle size of the product ([4]; U.S. Pat. No. 5,667,795, 40% chlorothalonil, 5.6% zinc oxide, wet mill): 3 microns

CC1OC(C)OC(C)OC(C)O1 (stereo not drawn) [metaldehyde]
diameter below which 90% of the particles lie [4, 9]: less than 2.5 microns | mean volume diameter [4, 9]: less than 1.5 microns
